The record followed here is patent EP3212201B1, “NUCLEOSIDE KINASE INHIBITORS” (BCI Pharma, priority 2014, dated 2016).

Experiment in all cases: FRET-based coupled-enzyme protein kinase inhibition assay
Common to all, as to format: biochemical
What all share (conditions): compound at 10 µM, 1% DMSO

One experiment addresses T1, ACVR1B (ALK4) (Homo sapiens, UniProt P36896).
T1 sequence (P36896 24-505): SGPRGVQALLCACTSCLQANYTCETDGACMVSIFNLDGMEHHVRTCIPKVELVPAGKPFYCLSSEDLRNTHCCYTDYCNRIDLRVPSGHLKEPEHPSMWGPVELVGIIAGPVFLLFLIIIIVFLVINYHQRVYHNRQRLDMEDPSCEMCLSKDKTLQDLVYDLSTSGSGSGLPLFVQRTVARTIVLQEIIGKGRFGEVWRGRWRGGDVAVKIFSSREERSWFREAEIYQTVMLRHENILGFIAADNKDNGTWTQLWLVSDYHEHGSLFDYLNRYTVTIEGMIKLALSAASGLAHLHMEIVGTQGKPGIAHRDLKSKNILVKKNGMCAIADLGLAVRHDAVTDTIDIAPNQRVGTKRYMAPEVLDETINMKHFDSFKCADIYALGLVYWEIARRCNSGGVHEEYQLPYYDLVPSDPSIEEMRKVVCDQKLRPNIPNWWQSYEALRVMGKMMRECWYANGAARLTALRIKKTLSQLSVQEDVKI
The procedure, abridged: (§1)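 Inhibition was quantified ratiometrically, as coumarin over fluorescein emission following 400 nm excitation, on a doubly labeled peptide whose cleavage by development reagent requires it to remain unphosphorylated. Kinase reactions ran 60 min at room temperature with ATP at apparent Km.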

Another experiment deals with BTK (Homo sapiens, UniProt Q06187). The procedure, abridged:
as §1

The target in another experiment is CSNK1G2 (CK1 gamma 2) (Homo sapiens, UniProt P78368). A digest of the protocol:
as §1

The next experiment addresses EPHA2 (Homo sapiens, UniProt P29317). A digest of the protocol:
as §1

The next experiment deals with ERBB2 (HER2) (Homo sapiens, UniProt P04626). The procedure, abridged:
as §1

Another experiment has as its target T2, FLT3 (Homo sapiens, UniProt P36888).
T2 sequence (P36888 27-993): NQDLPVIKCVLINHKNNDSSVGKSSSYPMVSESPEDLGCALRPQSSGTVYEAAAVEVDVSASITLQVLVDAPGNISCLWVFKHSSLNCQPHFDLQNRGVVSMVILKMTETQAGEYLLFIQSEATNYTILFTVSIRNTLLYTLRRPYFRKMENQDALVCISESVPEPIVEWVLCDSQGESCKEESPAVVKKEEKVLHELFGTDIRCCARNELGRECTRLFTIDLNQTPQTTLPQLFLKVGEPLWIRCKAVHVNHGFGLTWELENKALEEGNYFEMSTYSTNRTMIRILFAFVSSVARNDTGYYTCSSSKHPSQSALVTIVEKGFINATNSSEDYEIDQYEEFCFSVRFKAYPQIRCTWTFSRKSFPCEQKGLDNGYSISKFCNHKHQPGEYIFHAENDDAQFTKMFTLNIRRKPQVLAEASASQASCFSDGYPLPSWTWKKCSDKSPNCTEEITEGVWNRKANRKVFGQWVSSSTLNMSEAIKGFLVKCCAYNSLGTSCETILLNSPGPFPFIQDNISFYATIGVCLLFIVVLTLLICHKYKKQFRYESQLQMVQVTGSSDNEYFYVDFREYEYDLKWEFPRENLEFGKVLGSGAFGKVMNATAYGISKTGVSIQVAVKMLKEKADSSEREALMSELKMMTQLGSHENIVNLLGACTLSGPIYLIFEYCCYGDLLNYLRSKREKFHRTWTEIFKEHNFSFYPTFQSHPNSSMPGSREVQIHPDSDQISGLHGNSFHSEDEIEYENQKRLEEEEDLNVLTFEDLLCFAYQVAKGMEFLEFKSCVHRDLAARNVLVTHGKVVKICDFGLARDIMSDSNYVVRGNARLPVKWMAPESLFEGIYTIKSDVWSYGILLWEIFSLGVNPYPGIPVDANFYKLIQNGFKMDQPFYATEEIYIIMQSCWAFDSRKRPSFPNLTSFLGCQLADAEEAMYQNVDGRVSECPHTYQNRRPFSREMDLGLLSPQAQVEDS
A digest of the protocol: as §1

The target in another experiment is PDGFRB (PDGFR beta) (Homo sapiens, UniProt P09619). A digest of the protocol: as §1
Sequence of PDGFRB (PDGFR beta) (P09619 33-1106, species assumed): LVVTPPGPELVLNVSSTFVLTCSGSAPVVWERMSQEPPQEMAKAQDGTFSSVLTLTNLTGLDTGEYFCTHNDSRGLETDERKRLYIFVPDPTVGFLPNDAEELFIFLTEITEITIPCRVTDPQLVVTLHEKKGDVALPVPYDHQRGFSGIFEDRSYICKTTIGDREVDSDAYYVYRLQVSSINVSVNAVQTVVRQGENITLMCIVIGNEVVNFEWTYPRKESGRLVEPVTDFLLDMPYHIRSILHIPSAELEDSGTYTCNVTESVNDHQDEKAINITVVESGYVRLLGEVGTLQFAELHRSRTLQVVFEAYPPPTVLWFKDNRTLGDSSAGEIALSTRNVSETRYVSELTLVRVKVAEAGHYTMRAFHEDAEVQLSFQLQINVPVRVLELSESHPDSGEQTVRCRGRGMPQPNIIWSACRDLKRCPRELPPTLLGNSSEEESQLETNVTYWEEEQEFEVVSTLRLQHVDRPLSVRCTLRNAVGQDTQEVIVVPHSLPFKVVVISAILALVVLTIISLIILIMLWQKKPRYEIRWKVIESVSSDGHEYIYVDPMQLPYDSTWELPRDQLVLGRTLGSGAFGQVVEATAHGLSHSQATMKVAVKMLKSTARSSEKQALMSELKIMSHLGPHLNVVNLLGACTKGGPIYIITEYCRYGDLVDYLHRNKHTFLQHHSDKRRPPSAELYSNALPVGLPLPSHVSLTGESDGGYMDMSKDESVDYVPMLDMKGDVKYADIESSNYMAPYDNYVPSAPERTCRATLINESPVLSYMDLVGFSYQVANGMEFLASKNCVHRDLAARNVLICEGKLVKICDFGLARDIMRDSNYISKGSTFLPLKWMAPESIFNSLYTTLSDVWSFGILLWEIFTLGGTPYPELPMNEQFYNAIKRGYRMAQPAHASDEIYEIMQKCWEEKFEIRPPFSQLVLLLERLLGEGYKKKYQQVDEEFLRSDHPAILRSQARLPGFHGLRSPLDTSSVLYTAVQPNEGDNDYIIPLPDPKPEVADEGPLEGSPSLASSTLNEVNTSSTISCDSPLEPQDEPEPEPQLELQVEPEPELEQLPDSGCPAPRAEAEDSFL

Molecules are shown by their SMILES.

Sequence of ERBB2 (HER2) (P04626 23-1255, species assumed): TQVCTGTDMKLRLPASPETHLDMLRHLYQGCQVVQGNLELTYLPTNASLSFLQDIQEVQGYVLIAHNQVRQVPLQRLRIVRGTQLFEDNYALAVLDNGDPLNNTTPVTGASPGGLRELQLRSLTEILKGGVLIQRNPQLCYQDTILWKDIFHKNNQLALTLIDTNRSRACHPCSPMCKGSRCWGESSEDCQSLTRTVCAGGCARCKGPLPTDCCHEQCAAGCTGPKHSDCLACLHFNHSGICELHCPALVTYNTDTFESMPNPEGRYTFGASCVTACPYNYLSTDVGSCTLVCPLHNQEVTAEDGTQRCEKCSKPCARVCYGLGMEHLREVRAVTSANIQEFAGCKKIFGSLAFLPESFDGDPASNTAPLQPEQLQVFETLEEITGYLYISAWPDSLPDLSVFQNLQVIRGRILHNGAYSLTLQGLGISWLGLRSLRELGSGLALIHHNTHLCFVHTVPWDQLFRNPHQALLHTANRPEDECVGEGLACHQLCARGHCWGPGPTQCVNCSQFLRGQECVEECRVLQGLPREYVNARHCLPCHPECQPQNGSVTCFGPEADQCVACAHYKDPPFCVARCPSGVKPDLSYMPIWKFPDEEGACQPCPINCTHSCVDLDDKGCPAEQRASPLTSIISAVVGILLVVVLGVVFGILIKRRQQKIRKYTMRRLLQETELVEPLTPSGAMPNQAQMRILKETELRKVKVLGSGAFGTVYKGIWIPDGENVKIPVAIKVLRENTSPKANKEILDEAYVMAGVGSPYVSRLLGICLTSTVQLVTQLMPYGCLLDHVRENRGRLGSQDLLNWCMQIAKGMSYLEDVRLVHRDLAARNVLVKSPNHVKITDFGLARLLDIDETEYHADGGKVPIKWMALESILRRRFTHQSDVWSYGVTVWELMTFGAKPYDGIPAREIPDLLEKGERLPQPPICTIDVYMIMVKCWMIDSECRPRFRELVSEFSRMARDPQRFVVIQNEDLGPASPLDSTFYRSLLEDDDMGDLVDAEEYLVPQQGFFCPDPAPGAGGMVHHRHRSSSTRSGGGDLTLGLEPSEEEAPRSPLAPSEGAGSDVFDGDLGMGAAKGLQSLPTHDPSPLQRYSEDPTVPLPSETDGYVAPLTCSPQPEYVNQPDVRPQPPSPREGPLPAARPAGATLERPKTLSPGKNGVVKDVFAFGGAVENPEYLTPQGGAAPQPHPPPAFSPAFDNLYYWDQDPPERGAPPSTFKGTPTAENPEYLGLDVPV
Sequence of CSNK1G2 (CK1 gamma 2) (P78368 whole entry, species assumed): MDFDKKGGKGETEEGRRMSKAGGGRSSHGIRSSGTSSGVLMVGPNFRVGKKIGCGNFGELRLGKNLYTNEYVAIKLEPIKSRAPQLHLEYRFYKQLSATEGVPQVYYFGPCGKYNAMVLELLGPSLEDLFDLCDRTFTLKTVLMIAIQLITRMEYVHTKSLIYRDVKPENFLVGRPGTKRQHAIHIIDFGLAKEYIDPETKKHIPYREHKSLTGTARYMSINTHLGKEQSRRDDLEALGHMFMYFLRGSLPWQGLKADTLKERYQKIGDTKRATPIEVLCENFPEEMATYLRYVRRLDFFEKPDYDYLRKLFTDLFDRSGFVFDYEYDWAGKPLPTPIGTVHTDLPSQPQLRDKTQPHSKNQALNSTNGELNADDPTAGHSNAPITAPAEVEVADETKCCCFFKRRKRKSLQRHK
Sequence of BTK (Q06187 whole entry, species assumed): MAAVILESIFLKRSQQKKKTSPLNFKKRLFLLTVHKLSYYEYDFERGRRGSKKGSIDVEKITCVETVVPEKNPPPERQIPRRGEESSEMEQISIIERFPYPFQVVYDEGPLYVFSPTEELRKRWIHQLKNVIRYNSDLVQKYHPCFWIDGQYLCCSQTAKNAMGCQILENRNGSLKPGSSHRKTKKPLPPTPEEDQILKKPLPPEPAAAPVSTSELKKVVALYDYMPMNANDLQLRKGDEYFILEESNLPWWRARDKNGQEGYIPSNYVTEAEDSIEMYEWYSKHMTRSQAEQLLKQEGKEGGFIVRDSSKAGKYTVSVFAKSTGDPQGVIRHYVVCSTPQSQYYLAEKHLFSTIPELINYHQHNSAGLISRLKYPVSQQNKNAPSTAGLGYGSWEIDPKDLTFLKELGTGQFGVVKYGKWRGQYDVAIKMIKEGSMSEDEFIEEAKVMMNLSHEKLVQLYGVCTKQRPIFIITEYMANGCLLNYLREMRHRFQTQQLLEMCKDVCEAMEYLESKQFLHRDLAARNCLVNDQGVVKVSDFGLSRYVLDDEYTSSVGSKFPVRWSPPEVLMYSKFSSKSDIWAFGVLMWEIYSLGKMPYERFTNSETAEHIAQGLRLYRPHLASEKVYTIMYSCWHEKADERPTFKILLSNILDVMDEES
Sequence of EPHA2 (P29317 24-976, species assumed): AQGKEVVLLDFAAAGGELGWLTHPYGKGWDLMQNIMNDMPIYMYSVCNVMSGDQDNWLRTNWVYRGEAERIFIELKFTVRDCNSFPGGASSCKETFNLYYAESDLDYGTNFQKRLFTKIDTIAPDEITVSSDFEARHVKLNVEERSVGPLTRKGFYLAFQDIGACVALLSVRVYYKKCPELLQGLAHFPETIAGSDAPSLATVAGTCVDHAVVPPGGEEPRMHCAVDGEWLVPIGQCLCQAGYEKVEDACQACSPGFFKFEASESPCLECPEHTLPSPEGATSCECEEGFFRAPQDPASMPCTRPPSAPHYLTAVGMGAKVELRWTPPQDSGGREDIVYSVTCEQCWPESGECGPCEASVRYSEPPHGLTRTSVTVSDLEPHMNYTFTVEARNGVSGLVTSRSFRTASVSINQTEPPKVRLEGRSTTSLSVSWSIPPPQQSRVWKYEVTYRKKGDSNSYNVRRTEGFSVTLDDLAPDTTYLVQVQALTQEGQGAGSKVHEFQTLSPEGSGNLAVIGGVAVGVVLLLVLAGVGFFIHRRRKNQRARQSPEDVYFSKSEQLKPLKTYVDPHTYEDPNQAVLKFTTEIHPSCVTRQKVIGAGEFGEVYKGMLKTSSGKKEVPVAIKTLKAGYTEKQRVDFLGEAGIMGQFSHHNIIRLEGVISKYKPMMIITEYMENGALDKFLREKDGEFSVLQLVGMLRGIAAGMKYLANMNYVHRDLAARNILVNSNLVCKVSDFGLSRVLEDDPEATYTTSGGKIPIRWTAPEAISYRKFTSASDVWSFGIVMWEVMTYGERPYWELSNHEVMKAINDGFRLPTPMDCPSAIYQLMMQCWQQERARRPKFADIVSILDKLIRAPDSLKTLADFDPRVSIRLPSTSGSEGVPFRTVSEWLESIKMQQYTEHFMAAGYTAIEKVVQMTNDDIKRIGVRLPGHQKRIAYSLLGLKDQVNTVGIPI

What is called inhibition is the change of the read-out against control, counted positive when it falls. Consider `Nc1ncnc2c1ncn2[C@@H]1O[C@H](COC(=O)NCCCc2nc3ccccc3[nH]2)[C@@H](O)[C@H]1O` [Compound C1], for which the inhibition at 10 µM on ACVR1B (ALK4) was 2%; against BTK, 9%; against CSNK1G2 (CK1 gamma 2) it was -2%; against EPHA2, 8%; against ERBB2 (HER2) it was 5%; against FLT3, 6%. In addition, the inhibition at 10 µM against PDGFRB (PDGFR beta) came out at 1%.
With `C[C@@H](NC(=O)OC[C@H]1O[C@@H](n2cnc3c(N)ncnc32)[C@H](O)[C@@H]1O)c1ccc(Cl)cc1` [Compound C4], the inhibition at 10 µM against ACVR1B (ALK4) stood at 1%; against BTK, 2%; at CSNK1G2 (CK1 gamma 2), 7%; against EPHA2, 4%; on ERBB2 (HER2), 2%; on FLT3 it was 19%. The inhibition at 10 µM on PDGFRB (PDGFR beta) stood at 5%.
For `Nc1ncnc2c1ncn2[C@@H]1O[C@H](COC(=O)NC[C@H](O)CO)[C@@H](O)[C@H]1O` [Compound C8], the inhibition at 10 µM against ACVR1B (ALK4) is 0%; against BTK, 4%; against CSNK1G2 (CK1 gamma 2), 13%; at EPHA2, 12%; against ERBB2 (HER2) it was -7%; on FLT3, 12%. Further, the inhibition at 10 µM against PDGFRB (PDGFR beta) is 5%.
For `Nc1ncnc2c1ncn2[C@@H]1O[C@H](COC(=O)N2CCC[C@H]2CO)[C@@H](O)[C@H]1O` [Compound C9], the inhibition at 10 µM was -5% at ACVR1B (ALK4); 9% at BTK; -5% against CSNK1G2 (CK1 gamma 2); 5% against EPHA2; -19% against ERBB2 (HER2); 8% against FLT3. Further, the inhibition at 10 µM against PDGFRB (PDGFR beta) is -1%.
As for `Nc1ncnc2c1ncn2[C@@H]1O[C@H](COC(=O)N[C@@H]2CCN(Cc3ccccc3)C2)[C@@H](O)[C@H]1O` [Compound C10], the inhibition at 10 µM against ACVR1B (ALK4) is 4%; against BTK, 7%; against CSNK1G2 (CK1 gamma 2), 7%; on EPHA2, 9%; against ERBB2 (HER2), -5%; on FLT3, 13%. Further, the inhibition at 10 µM at PDGFRB (PDGFR beta) turned out to be 7%.
As to `Nc1ncnc2c1ncn2[C@@H]1O[C@H](COC(=O)N2CCN(Cc3ccccc3)CC2CO)[C@@H](O)[C@H]1O` (stereo partly shown) [Compound C13], the inhibition at 10 µM was found to be 7% on ACVR1B (ALK4); 9% against BTK; 11% at CSNK1G2 (CK1 gamma 2); 3% on EPHA2; 3% on ERBB2 (HER2); 12% against FLT3. Also, the inhibition at 10 µM at PDGFRB (PDGFR beta) is 6%.
For `CC(C)N1CCC(NC(=O)OC[C@H]2O[C@@H](n3cnc4c(N)ncnc43)[C@H](O)[C@@H]2O)CC1` [Compound C19], the inhibition at 10 µM against ACVR1B (ALK4) is 6%; on BTK, -1%; at CSNK1G2 (CK1 gamma 2), 6%; at EPHA2 it was 7%; on ERBB2 (HER2), -7%; against FLT3, 23%. The inhibition at 10 µM against PDGFRB (PDGFR beta) turned out to be 6%.
As to `Nc1ncnc2c1ncn2[C@@H]1O[C@H](COC(=O)NCCN2CCCC2=O)[C@@H](O)[C@H]1O` [Compound C22], the inhibition at 10 µM against ACVR1B (ALK4) was 3%; on BTK, -1%; against CSNK1G2 (CK1 gamma 2), 2%; against EPHA2, 1%; on ERBB2 (HER2), -9%; at FLT3, 9%. The inhibition at 10 µM at PDGFRB (PDGFR beta) stood at 4%.
`Nc1ncnc2c1ncn2[C@@H]1O[C@H](COC(=O)N2CCN(CCc3ccccc3)CC2)[C@@H](O)[C@H]1O` [Compound C26]: the inhibition at 10 µM was 0% at ACVR1B (ALK4); 0% against BTK; 0% against CSNK1G2 (CK1 gamma 2); -1% against EPHA2; 8% at ERBB2 (HER2); 18% at FLT3. The inhibition at 10 µM against PDGFRB (PDGFR beta) worked out at 1%.
In the case of `CN1CCN(CCNC(=O)OC[C@H]2O[C@@H](n3cnc4c(N)ncnc43)[C@H](O)[C@@H]2O)CC1` [Compound C46], the inhibition at 10 µM was 6% on ACVR1B (ALK4); 0% on BTK; -4% on CSNK1G2 (CK1 gamma 2); 3% on EPHA2; -14% on ERBB2 (HER2); 10% against FLT3. Besides, the inhibition at 10 µM against PDGFRB (PDGFR beta) is 1%.
As for `Nc1ncnc2c1ncn2[C@@H]1O[C@H](COC(=O)N2CCC(Cc3ccc(F)cc3)C2)[C@@H](O)[C@H]1O` (stereo partly shown) [Compound C66], the inhibition at 10 µM against ACVR1B (ALK4) is 1%; against BTK it was 11%; at CSNK1G2 (CK1 gamma 2), 10%; against EPHA2 it was 9%; at ERBB2 (HER2) it was 11%; against FLT3, 20%. Further, at PDGFRB (PDGFR beta), the inhibition at 10 µM is 4%.
For the molecule `N#CCCN1CCN(C(=O)OC[C@H]2O[C@@H](n3cnc4c(N)ncnc43)[C@H](O)[C@@H]2O)CC1` [Compound C70], the inhibition at 10 µM came to 1% against ACVR1B (ALK4); 1% at BTK; 0% on CSNK1G2 (CK1 gamma 2); 4% against EPHA2; 0% at ERBB2 (HER2); 7% against FLT3. The inhibition at 10 µM on PDGFRB (PDGFR beta) amounted to 4%.
`CN(C)CCNC(=O)OC[C@H]1O[C@@H](n2cnc3c(N)ncnc32)[C@H](O)[C@@H]1O` [Compound C85]: the inhibition at 10 µM against ACVR1B (ALK4) was 0%; on BTK, 0%; against CSNK1G2 (CK1 gamma 2), 0%; on EPHA2, 4%; on ERBB2 (HER2), -13%; against FLT3, 12%. At PDGFRB (PDGFR beta), the inhibition at 10 µM came out at 8%.
Consider `Nc1ncnc2c1ncn2[C@@H]1O[C@H](COC(=O)N2CCN(C(=O)N3CCOCC3)CC2)[C@@H](O)[C@H]1O` [Compound C89], for which the inhibition at 10 µM against ACVR1B (ALK4) was 0%; against BTK, 4%; at CSNK1G2 (CK1 gamma 2), 0%; against EPHA2, 6%; against ERBB2 (HER2), -7%; at FLT3, 10%. In addition, the inhibition at 10 µM against PDGFRB (PDGFR beta) came to 9%.
Consider `CS(=O)(=O)N1CC2(CCN(C(=O)OC[C@H]3O[C@@H](n4cnc5c(N)ncnc54)[C@H](O)[C@@H]3O)CC2)c2ccccc21` [Compound C98], for which the inhibition at 10 µM against ACVR1B (ALK4) is -1%; at BTK, 16%; against CSNK1G2 (CK1 gamma 2) it was 15%; against EPHA2, 5%; against ERBB2 (HER2), 5%; at FLT3, 13%. At PDGFRB (PDGFR beta), the inhibition at 10 µM worked out at 10%.
For `Nc1ncnc2c1ncn2[C@@H]1O[C@H](COC(=O)N2CCS(=O)(=O)CC2)[C@@H](O)[C@H]1O` [Compound C100], the inhibition at 10 µM was 3% on ACVR1B (ALK4); -5% at BTK; -1% against CSNK1G2 (CK1 gamma 2); 4% on EPHA2; 2% against ERBB2 (HER2); 9% against FLT3. Further, the inhibition at 10 µM at PDGFRB (PDGFR beta) stood at 4%.
